The structures appear in SMILES notation. Activity calls are given as the source filed them.

These results are taken from ChEMBL document CHEMBL1201862, “PubChem BioAssay data set” (2004).

The subject of one assay is BJ. As to the kind of experiment: cells. Format: functional, cell-based. To be noted: Homo sapiens.
Another assay addresses T1, CAAX prenyl protease 2 (Saccharomyces cerevisiae S288c, UniProt Q03530).
T1 sequence (Q03530 whole entry): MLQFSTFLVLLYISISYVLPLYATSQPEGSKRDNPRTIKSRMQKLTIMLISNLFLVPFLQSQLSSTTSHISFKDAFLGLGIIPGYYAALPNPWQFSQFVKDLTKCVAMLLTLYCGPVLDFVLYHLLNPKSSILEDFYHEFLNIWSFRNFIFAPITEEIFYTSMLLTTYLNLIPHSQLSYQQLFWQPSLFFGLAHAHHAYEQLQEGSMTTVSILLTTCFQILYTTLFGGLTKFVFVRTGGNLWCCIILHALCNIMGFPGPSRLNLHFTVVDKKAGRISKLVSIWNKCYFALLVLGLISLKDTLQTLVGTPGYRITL
Format: biochemical.

For the next assay, the target named is T2, Insulin-degrading enzyme (Homo sapiens, UniProt P14735).
T2 sequence (P14735 whole entry): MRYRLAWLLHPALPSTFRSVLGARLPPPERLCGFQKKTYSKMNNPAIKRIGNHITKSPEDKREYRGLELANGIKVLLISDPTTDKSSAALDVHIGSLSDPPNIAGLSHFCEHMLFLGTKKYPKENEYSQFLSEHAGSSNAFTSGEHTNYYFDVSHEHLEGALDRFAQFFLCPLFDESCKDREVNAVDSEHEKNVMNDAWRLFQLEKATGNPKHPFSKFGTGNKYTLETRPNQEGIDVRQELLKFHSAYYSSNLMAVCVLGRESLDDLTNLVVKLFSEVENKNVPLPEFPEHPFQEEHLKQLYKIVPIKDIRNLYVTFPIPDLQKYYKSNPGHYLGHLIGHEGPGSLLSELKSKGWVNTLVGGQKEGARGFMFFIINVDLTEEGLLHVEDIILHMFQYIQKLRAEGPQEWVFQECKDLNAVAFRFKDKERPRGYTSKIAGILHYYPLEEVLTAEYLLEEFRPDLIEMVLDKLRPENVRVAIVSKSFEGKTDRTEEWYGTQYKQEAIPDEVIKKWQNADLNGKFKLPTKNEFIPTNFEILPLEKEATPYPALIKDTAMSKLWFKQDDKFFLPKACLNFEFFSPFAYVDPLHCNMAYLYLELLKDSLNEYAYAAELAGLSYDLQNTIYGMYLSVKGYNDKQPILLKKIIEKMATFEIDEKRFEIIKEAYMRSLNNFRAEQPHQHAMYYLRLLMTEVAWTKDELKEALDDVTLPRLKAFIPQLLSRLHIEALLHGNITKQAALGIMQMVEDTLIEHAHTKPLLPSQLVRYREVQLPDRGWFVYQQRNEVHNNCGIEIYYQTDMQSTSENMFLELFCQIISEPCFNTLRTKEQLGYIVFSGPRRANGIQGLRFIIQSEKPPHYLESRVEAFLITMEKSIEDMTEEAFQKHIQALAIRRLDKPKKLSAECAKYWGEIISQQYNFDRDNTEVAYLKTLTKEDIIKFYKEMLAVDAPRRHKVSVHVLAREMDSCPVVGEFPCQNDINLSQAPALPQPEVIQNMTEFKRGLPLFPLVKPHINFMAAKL
The experiment in a line: recombinant IDE activation, cell-free – biochemical, fluorescence polarization, counter-screen for IDE activator project, dose response (AID 588681). Background: Polarisation of emitted light reports the rotation of a fluorescent probe.

Assay [1] concerns the target Small ubiquitin-related modifier 1 (Homo sapiens, UniProt P63165). The experiment in a line: SUMO1 protein-protein binding blockers, potency – biochemical, FRET, dose response (AID 624383). Type of assay: functional. To be noted: read-out: IC50_Mean.
Assay [2] in a line: viability of PTEN-deleted HCT116 cells – cell-based, HCT116 PTEN knockout, dose response (AID 1047).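 Further: HCT116 colon tumor cells with PTEN knocked out; cells exposed to compound for 60 hours before readout; potency for loss of cell viability measured by luminescence.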 Format: functional.
A short description of assay [3]: viability of HCT116 lacking mutant beta-catenin – cell-based, human colon tumor, dose response (AID 1045).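 Further: HCT116 colon tumor cells with beta catenin knocked out; cells exposed to compound for 60 hours.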 Format: functional.
The target of assay [4] is RAC-gamma serine/threonine-protein kinase (Homo sapiens, UniProt Q9Y243). Format: functional.
Assay [5] deals with Mitogen-activated protein kinase 8 (Homo sapiens, UniProt P45983). Format: functional.
Assay [6] addresses Serine/threonine-protein kinase PAK 4 (Homo sapiens, UniProt O96013). Format: functional.
Assay [7] deals with Fibroblast growth factor receptor 1 (Homo sapiens, UniProt P11362). Format: functional.
For another assay, the target named is LIM domain kinase 1 (Homo sapiens, UniProt P53667). As to the kind of experiment: Navigating the Kinome. Panel member name: LIMK1. Format: functional.
For assay [8], the target named is High affinity nerve growth factor receptor (Homo sapiens, UniProt P04629). Type of assay: functional.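 Further: NTRK1 tested as one member of a kinome-wide profiling panel.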
Assay [9] addresses Hepatocyte growth factor receptor (Homo sapiens, UniProt P08581). Format: functional.
The target in assay [10] is Serine/threonine-protein kinase PLK1 (Homo sapiens, UniProt P53350). Type of assay: functional.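 Further: PLK1 measured as one member of a kinome-wide profiling panel.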
Assay [11] concerns the target Receptor tyrosine-protein kinase erbB-4 (Homo sapiens, UniProt Q15303). Format: functional.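 Further: ERBB4 member of a kinome-wide kinase profiling panel.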
In assay [12] the target is Serine/threonine-protein kinase MRCK alpha (Homo sapiens, UniProt Q5VT25). Format: functional.
For assay [13], the target named is Dual specificity tyrosine-phosphorylation-regulated kinase 1A (Homo sapiens, UniProt Q13627). Type of assay: functional.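 Further: measured against DYRK1A as one member of a broad kinome profiling panel.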

Sequence of Serine/threonine-protein kinase PLK1 (P53350 whole entry): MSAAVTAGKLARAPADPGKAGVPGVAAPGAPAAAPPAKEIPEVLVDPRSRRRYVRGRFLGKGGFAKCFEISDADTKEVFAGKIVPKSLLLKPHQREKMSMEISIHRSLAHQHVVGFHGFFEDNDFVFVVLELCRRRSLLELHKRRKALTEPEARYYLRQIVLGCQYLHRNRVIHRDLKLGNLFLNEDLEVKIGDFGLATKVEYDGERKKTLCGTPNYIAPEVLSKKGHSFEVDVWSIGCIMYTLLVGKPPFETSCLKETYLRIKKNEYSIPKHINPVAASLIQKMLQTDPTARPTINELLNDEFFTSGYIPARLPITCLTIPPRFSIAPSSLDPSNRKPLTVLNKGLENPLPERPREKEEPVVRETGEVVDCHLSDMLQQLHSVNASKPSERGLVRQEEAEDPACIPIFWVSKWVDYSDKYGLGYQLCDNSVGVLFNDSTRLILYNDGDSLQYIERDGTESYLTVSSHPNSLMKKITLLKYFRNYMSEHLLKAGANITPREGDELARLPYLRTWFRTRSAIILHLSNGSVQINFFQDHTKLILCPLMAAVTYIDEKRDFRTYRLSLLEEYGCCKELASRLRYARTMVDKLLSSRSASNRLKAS
Sequence of Fibroblast growth factor receptor 1 (P11362 whole entry, the tested form may be a part): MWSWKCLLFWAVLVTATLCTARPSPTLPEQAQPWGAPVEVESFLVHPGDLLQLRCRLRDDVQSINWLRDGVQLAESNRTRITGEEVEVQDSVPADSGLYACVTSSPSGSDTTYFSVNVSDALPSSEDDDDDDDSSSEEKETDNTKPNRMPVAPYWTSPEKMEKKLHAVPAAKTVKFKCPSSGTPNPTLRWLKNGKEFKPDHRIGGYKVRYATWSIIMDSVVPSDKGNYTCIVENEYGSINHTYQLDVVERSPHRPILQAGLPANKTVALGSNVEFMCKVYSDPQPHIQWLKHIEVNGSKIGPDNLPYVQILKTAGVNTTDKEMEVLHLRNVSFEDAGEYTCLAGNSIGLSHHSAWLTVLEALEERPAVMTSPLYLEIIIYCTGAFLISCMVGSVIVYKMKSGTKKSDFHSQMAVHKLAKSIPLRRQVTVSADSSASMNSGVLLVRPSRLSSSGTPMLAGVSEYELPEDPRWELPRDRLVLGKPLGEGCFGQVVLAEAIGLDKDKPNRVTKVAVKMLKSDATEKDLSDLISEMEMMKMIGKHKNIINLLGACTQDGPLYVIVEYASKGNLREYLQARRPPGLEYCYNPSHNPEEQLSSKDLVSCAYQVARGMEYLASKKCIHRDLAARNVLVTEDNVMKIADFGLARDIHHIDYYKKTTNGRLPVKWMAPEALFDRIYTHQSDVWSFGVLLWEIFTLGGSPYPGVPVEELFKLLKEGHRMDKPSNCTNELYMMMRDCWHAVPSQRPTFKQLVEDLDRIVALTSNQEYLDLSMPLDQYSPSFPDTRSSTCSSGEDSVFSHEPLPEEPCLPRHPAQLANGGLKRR
Sequence of RAC-gamma serine/threonine-protein kinase (Q9Y243 whole entry): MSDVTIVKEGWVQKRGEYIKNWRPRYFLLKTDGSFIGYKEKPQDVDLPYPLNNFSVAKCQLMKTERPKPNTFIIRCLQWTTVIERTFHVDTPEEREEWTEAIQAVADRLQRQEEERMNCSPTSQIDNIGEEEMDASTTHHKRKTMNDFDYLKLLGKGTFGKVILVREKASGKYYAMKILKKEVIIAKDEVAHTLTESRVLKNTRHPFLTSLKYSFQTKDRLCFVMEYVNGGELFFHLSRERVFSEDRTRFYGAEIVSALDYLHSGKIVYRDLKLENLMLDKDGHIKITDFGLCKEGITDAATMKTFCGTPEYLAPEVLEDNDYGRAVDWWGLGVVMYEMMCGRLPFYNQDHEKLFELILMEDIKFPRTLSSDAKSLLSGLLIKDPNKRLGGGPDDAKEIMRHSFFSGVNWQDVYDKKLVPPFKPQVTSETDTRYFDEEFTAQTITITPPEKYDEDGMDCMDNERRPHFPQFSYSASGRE
Sequence of Receptor tyrosine-protein kinase erbB-4 (Q15303 whole entry): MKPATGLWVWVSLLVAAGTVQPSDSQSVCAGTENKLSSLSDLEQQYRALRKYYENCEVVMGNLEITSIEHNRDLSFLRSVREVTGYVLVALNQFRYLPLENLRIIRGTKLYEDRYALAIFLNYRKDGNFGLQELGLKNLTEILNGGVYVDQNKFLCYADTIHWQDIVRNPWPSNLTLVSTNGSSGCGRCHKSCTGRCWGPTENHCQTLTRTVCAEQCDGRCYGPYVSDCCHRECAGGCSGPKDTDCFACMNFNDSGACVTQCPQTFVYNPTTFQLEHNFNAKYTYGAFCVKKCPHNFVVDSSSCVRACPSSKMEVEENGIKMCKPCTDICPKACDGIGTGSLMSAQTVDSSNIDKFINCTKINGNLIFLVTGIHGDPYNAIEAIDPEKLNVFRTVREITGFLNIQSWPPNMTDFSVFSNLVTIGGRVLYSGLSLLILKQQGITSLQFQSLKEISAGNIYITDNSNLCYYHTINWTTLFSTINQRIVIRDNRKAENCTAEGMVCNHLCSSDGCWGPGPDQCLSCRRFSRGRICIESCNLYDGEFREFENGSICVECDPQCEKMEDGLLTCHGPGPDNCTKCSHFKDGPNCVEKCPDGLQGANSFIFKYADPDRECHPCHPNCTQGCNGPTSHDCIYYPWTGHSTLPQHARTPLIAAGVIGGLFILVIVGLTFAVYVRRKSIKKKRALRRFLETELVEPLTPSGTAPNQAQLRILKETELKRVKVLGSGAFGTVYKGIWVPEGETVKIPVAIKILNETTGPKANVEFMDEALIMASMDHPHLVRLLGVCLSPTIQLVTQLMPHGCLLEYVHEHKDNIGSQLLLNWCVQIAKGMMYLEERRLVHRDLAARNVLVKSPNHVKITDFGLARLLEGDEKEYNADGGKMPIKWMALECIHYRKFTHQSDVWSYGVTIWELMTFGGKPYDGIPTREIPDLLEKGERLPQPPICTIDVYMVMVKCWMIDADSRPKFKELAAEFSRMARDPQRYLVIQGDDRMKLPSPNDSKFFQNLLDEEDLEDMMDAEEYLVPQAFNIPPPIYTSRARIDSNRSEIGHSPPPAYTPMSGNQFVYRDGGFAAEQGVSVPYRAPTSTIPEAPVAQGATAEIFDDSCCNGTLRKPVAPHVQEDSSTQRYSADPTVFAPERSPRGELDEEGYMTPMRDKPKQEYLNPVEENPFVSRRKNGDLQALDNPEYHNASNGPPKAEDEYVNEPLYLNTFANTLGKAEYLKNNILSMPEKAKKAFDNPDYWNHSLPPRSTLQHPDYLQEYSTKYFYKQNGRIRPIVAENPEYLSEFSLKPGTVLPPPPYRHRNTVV
Sequence of High affinity nerve growth factor receptor (P04629 whole entry): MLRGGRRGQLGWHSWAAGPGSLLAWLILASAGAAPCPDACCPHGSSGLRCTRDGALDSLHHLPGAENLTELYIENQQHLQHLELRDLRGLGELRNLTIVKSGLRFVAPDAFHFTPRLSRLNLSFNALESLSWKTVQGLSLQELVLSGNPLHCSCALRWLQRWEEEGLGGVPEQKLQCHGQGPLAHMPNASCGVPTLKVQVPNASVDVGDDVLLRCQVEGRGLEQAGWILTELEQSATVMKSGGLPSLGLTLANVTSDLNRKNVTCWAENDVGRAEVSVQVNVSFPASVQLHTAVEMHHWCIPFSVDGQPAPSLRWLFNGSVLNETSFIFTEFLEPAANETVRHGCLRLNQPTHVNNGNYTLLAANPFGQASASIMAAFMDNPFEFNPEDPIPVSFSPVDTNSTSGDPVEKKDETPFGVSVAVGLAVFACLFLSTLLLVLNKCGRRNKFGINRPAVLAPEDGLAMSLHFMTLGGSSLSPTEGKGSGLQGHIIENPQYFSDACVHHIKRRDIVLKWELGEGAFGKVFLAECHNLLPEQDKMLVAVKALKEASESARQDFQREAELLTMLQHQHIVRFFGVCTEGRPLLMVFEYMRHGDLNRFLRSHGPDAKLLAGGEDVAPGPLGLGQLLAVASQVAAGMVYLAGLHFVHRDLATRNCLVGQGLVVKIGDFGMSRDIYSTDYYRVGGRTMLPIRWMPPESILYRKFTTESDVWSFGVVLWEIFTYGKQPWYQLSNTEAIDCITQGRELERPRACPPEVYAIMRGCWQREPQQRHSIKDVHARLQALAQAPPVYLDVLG
Sequence of LIM domain kinase 1 (P53667 whole entry, the tested form may be a part): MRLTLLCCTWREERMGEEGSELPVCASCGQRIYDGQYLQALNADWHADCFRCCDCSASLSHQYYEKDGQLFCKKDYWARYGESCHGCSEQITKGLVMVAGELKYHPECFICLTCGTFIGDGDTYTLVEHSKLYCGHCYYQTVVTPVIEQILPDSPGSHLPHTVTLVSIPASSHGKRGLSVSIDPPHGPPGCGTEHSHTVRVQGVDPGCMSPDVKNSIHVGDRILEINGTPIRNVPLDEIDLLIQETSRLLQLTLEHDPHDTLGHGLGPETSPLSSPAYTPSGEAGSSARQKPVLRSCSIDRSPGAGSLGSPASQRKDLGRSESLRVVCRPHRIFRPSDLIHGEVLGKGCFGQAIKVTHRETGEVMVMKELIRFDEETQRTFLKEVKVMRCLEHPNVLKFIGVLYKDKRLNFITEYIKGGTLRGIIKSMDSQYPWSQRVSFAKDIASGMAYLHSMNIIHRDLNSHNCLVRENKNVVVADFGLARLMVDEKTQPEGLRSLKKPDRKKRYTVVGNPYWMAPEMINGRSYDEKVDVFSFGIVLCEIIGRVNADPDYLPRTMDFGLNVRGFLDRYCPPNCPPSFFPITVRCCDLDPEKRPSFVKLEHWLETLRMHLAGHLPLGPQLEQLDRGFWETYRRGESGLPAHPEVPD
Sequence of Small ubiquitin-related modifier 1 (P63165 whole entry): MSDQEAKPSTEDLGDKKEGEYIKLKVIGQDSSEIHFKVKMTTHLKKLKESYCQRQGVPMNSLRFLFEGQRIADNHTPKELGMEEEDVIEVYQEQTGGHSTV

`Cc1cc(N)c2cc(NC(=O)/C=C/c3ccccc3Cl)ccc2n1`: the concentration giving a half-maximal response (EC50) (in general, the midpoint of the concentration-response curve) in the assay on BJ is 4.79 µM (inconclusive); on Insulin-degrading enzyme it was > 54.7 µM (inactive). Also, on CAAX prenyl protease 2, the AC50 (commonly the midpoint of the concentration-response curve, whichever way the signal moves) is 6.78 µM (active). Further, in assay [1], the IC50 was 7.51 µM (active).
For `CCC(C)NC(=O)c1c(N)n(CCCOC)c2nc3ccccc3nc12` (configuration not stated), the EC50 is 33.2 µM (active) in [2] and 34.1 µM (active) in assay [3].
As for `CC(=NNC(=N)N)c1cc(NC(=O)NCCCCCCNC(=O)Nc2cc(C(C)=NNC(=N)N)cc(C(C)=NNC(=N)N)c2)cc(C(C)=NNC(=N)N)c1`, the Ki (as a rule, a measure of affinity in units of concentration, obtained from inhibition or displacement) was 398 nM (active) in assay [4]; > 3.16 µM (inactive) in assay [5]; 2.51 µM (active) in assay [6]; > 5.01 µM (inactive) in [7]; 1.26 µM (active) on LIM domain kinase 1; > 2.51 µM (inactive) in [8]. Moreover, the Ki is 2.51 µM (active) in assay [9]; > 7.94 µM (inactive) in assay [10]; > 3.98 µM (inactive) in [11]; 316 nM (active) in [12]; > 6.31 µM (inactive) in assay [13].
